According to the supplement of paper PMC7017272:
± gives the standard deviation of the averaged measurements.

Assays:
Test in all cases: drug sensitivity score (DSS); higher = more sensitive; extreme values may be limits of the assay
UT-SCC-24B = conditions: culture condition: plastic 2D (no matrix); treatment time: 3 days
Outline: (§1)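 Using 384-well plates, 500 cells/well of HPV-negative HNSCC cell lines were grown on plastic, on 500 µg/mL Matrigel or Myogel coatings, or embedded in Matrigel or Myogel with rat collagen I. They were treated with compounds at five 10-fold concentrations for 3 days, and luminescence from CellTiter-Glo 2.0 was normalised to vehicle (0.1% DMSO) and cell-killing control wells. IC50, maximal inhibition and drug sensitivity score were derived from percent-inhibition dose–response curves in the FIMM pipeline.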

UT-SCC-28 = conditions: treatment time: 3 days
Outline: as §1

UT-SCC-40 = conditions: treatment time: 3 days
Outline: as §1

UT-SCC-42A = conditions: treatment time: 3 days
Outline: as §1

UT-SCC-42B = conditions: treatment time: 3 days
Outline: as §1

UT-SCC-44 = conditions: treatment time: 3 days
Outline: as §1

UT-SCC-73 = conditions: treatment time: 3 days
Outline: as §1

UT-SCC-81 = conditions: treatment time: 3 days
Outline: as §1

UT-SCC-8 = conditions: treatment time: 3 days
Outline: as §1

[1] = culture condition: embedded in Matrigel
[2] = culture condition: embedded in Myogel + collagen I
[3] = culture condition: on top of Matrigel
[4] = culture condition: plastic 2D (no matrix)
[5] = culture condition: on top of Myogel

In the case of `O=C(NC[C@H](O)CO)c1ccncc1Nc1ccc(I)cc1F` [Pimasertib], the drug sensitivity score (UT-SCC-24B) is reported as 20.3 ± 1.8 DSS, the drug sensitivity score (UT-SCC-28; [1]) is reported as 12 ± 2.6 DSS and the drug sensitivity score (UT-SCC-28; [2]) is reported as 9.97 ± 5.3 DSS. For the same compound, the drug sensitivity score (UT-SCC-28; [3]) was 11.4 ± 1.6 DSS, the drug sensitivity score (UT-SCC-28; [4]) was 5.03 ± 1.1 DSS and the drug sensitivity score (UT-SCC-40; [1]) was 27.63 ± 0.058 DSS. It also gave a drug sensitivity score (UT-SCC-40; [2]) of 20.2 ± 1.9 DSS, a drug sensitivity score (UT-SCC-40; [3]) of 23.8 ± 1.2 DSS and a drug sensitivity score (UT-SCC-40; [5]) of 14.9 ± 0.91 DSS. The drug sensitivity score (UT-SCC-40; [4]) was 15.5 ± 0.85 DSS, the drug sensitivity score (UT-SCC-42A; [1]) was 20.9 ± 0.5 DSS and the drug sensitivity score (UT-SCC-42A; [2]) was 9.43 ± 1.3 DSS. The drug sensitivity score (UT-SCC-42A; [3]) was 20.5 ± 1.6 DSS, the drug sensitivity score (UT-SCC-42A; [5]) was 12.8 ± 0.46 DSS and the drug sensitivity score (UT-SCC-42A; [4]) was 16.33 ± 0.12 DSS. It also gave a drug sensitivity score (UT-SCC-42B; [1]) of 24.5 ± 2.7 DSS, a drug sensitivity score (UT-SCC-42B; [3]) of 16.2 ± 1 DSS and a drug sensitivity score (UT-SCC-42B; [5]) of 9.77 ± 0.96 DSS. It also gave a drug sensitivity score (UT-SCC-42B; [4]) of 10.1 ± 0.55 DSS, a drug sensitivity score (UT-SCC-44; [1]) of 26.7 ± 2.9 DSS and a drug sensitivity score (UT-SCC-44; [2]) of 11.7 ± 3 DSS. It also gave a drug sensitivity score (UT-SCC-44; [3]) of 22.7 ± 1.1 DSS, a drug sensitivity score (UT-SCC-44; [5]) of 13.1 ± 2.4 DSS and a drug sensitivity score (UT-SCC-44; [4]) of 16.4 ± 4 DSS. The drug sensitivity score (UT-SCC-73; [1]) was 27.8 ± 0.5 DSS, the drug sensitivity score (UT-SCC-73; [2]) was 18.7 ± 4.6 DSS and the drug sensitivity score (UT-SCC-73; [3]) was 25.9 ± 0.64 DSS. It also gave a drug sensitivity score (UT-SCC-73; [5]) of 19.1 ± 1.1 DSS, a drug sensitivity score (UT-SCC-73; [4]) of 23 ± 0.68 DSS and a drug sensitivity score (UT-SCC-81; [1]) of 29.9 ± 0.51 DSS. It also gave a drug sensitivity score (UT-SCC-81; [2]) of 9.3 ± 3.1 DSS, a drug sensitivity score (UT-SCC-81; [3]) of 24 ± 1.8 DSS and a drug sensitivity score (UT-SCC-81; [5]) of 9.87 ± 0.5 DSS. It also gave a drug sensitivity score (UT-SCC-81; [4]) of 14.9 ± 1.4 DSS, a drug sensitivity score (UT-SCC-8; [1]) of 20.5 ± 1.8 DSS and a drug sensitivity score (UT-SCC-8; [2]) of 10.7 ± 0.15 DSS. It also gave a drug sensitivity score (UT-SCC-8; [3]) of 18.2 ± 1.3 DSS, a drug sensitivity score (UT-SCC-8; [5]) of 17 ± 1.6 DSS and a drug sensitivity score (UT-SCC-8; [4]) of 16.9 ± 1.8 DSS.
